# From patent US6126909A, “Process and apparatus for the production of BI-212 and a use thereof” (Arch Development Corporation, priority 1999, dated 2000)
# Experiment: Estimated radiation dose in humans
# Set-up: species or system human; Gamma dose/100 mCi / Alpha dose/100 mCi / Total dose: unit: cGy
# Settings: for Total dose / Calculated alpha dose / Calculated gamma dose: 100 mCi
# From the text: Based upon the in vivo studies, a contemplated dose of 100 mCi to a human produces an alpha and gamma dose to any organ of less than 150 cGy. The calculated alpha dose to the gastrointestinal tract, liver and kidneys is 87.7, 24.6 and 92.5 cGy, respectively, and the calculated gamma dose is 7.39, 4.14 and 5.00 cGy, respectively. Table 9, below, provides the estimated total dose in humans based upon an initial dose of 100 mCi of Bi-212.
smiles,measurement,setting,value
"[212Bi] [Bi-212, bismuth-212]",Alpha dose/100 mCi,GI tract,87.7
same,Gamma dose/100 mCi,GI tract,7.39
same,Total dose,GI tract,95.1
same,Alpha dose/100 mCi,brain,2.45
same,Gamma dose/100 mCi,brain,0.038
same,Total dose,brain,2.49
same,Alpha dose/100 mCi,breasts,2.45
same,Gamma dose/100 mCi,breasts,0.643
same,Total dose,breasts,3.09
same,Alpha and gamma dose to any organ,contemplated dose of 100 mCi to a human,less than 150 cGy
same,Calculated alpha dose,gastrointestinal tract,87.7 cGy
same,Calculated gamma dose,gastrointestinal tract,7.39 cGy
same,Alpha dose/100 mCi,kidneys,92.5
same,Gamma dose/100 mCi,kidneys,5.00
same,Calculated alpha dose,kidneys,92.5 cGy
same,Calculated gamma dose,kidneys,5.00 cGy
same,Total dose,kidneys,97.5
same,Alpha dose/100 mCi,liver,24.6
same,Gamma dose/100 mCi,liver,4.14
same,Calculated alpha dose,liver,24.6 cGy
same,Calculated gamma dose,liver,4.14 cGy
same,Total dose,liver,28.7
same,Alpha dose/100 mCi,lungs,2.45
same,Gamma dose/100 mCi,lungs,1.33
same,Total dose,lungs,3.78
same,Alpha dose/100 mCi,ovaries,102.4
same,Gamma dose/100 mCi,ovaries,5.42
same,Total dose,ovaries,107.8
same,Alpha dose/100 mCi,pancreas,2.45
same,Gamma dose/100 mCi,pancreas,17.2
same,Total dose,pancreas,19.7
same,Alpha dose/100 mCi,red marrow,2.45
same,Gamma dose/100 mCi,red marrow,2.30
same,Total dose,red marrow,4.75
same,Alpha dose/100 mCi,remainder,2.45
same,Gamma dose/100 mCi,remainder,1.78
same,Total dose,remainder,4.23
same,Alpha dose/100 mCi,thyroid,2.45
same,Gamma dose/100 mCi,thyroid,0.154
same,Total dose,thyroid,2.60
same,Alpha dose/100 mCi,total body,2.45
same,Gamma dose/100 mCi,total body,1.83
same,Total dose,total body,4.28
same,Alpha dose/100 mCi,uterus,102.4
same,Gamma dose/100 mCi,uterus,21.2
same,Total dose,uterus,123.6
